The record followed here is patent publication US20110091872A1, “DETECTING TRIAZOLE RESISTANCE IN ASPERGILLUS” (priority 2007, published 2011).

Converted amounts (≈) assume the structure as drawn. Where two headings read alike, the source gives them in different places. Where only a bound is given, the exact number is not on record here.

The term MIC denotes the lowest concentration that inhibits growth of the organism.

Assay [1] deals with AzRF1-H (homologous recombinant AzRF1-mutant of KU80). In words: NCCLS M38-A microdilution MIC, mutant AzRF1-H. It counts as cell-based. The settings on record: Aspergillus fumigatus; strain AzRF1-H; RPMI 1640, 48 hours, 37° C. The procedure:
(§1) The eight putative C6 transcription factors (TFs) were amplified from a well-characterized itraconazole-resistant strain known to over-express ABC transporters. Nascimento et al. Antimicrob. Agents Chemother. (2003) 47:1719-26. The putative mutant TFs were introduced into a wild type recipient strain and transformants screened for resistance to 10 μg/mlitraconazole. Minimum inhibition concentrations (MICs) were determined by the National Committee for Clinical Laboratory Standards (NCCLS) M38-A microdilution method in RPMI 1640 medium in the presence of 0.01 to 16.0 μg/ml after 48 hours of growth at 37° C.

Assay [2] has as its system AzRF1-R (derived from AzRF1-A after plasmid eviction). In words: NCCLS M38-A microdilution MIC, strain AzRF1-R. It counts as cell-based. The settings on record: Aspergillus fumigatus, 48 h. The method, then:
as §1
(§2) Plasmid pRG3-AMA1-AzRF1 was transformed into the triazole susceptible Ku80 strain. The derived mutant AzRF1-A, containing the mutant AzRF1 in an autonomous replicating plasmid was also resistant to triazole drugs (table 2). […] Strain AzRF1-R had restored sensitivity to triazole drugs (table 2).
(Broth dilution looks for growth in wells or tubes with falling amounts of substance.)

Assay [3] deals with wild type recipient strain transformed with mutant AzRF1. In words: NCCLS M38-A microdilution MIC, transformants carrying mutant TF AzRF1. Format: cell-based. The settings on record: Aspergillus fumigatus, 48 h. The procedure: as §1
AzRF1 is a C6 transcription factor that is closely related to Tac1 of C. albicans with 35% sequence identity to the Tac1 proteins (GeneBank accession number ABD85289.1).

The subject of assay [4] is AzRF1-M (homologous recombinant AzRF1-mutant of ATCC 13073). In words: NCCLS M38-A microdilution MIC, mutant AzRF1-M. It counts as cell-based, Aspergillus fumigatus. The settings on record: strain AzRF1-M, RPMI 1640, 48 hours, 37° C. The method, then:
as §1, §2

In assay [5] the test system is KU80 DELTA (triazole susceptible Ku80 strain). As to the kind of experiment: NCCLS M38-A microdilution MIC, parent strain KU80 DELTA. It counts as cell-based. The conditions noted are these: Aspergillus fumigatus, 48 h. The method, then:
as §1, §2

The test system of assay [6] is A. fumigatus wild type strain ATCC 13073. In words: NCCLS M38-A microdilution MIC, parent strain ATCC 13073. Format: cell-based. The settings on record: Aspergillus fumigatus, ATCC13073, RPMI 1640, 48 hours, 37° C. The procedure:
as §1

Assay [7] deals with AzRF1-A (KU80 with mutant AzRF1 in autonomously replicating plasmid pRG3-AMA1-AzRF1). As to the kind of experiment: NCCLS M38-A microdilution MIC, mutant AzRF1-A. It counts as cell-based. The settings on record: Aspergillus fumigatus; strain AzRF1-A; RPMI 1640, 48 hours, 37° C. The procedure: as §1, §2
The mark [8] stands for this setting: Aspergillus fumigatus, ATCC13073, read-out: MIC.

With `CCC(C)n1ncn(-c2ccc(N3CCN(c4ccc(OCC5COC(Cn6cncn6)(c6ccc(Cl)cc6Cl)O5)cc4)CC3)cc2)c1=O` (stereo not shown) [ITRACONAZOLE, itraconazole], the MIC in assay [1] is greater than 16 µg/mL; in assay [2], greater than 16 µg/mL; in assay [3], greater than 16 µg/mL; in assay [4] (setting [8]), greater than 16 µg/mL; in assay [4], greater than 16.0 µg/mL; in assay [5], 0.25 µg/mL (≈ 0.354 µM). The values for the MIC in assay [6] and in assay [7] were 0.25 µg/mL (≈ 0.354 µM) and greater than 16 µg/mL, respectively.
Take `C[C@@H](c1ncncc1F)[C@](O)(Cn1cncn1)c1ccc(F)cc1F` [VORICONAZOLE, voriconazole]: the minimal inhibitory concentration (MIC) in assay [1] was greater than 8 µg/mL; in assay [2], greater than 8 µg/mL; in assay [3] it was greater than 8 µg/mL; in assay [4] (setting [8]), greater than 8 µg/mL; in assay [4], greater than 8.0 µg/mL; in assay [5], 0.06 µg/mL (≈ 0.172 µM). The minimum inhibitory concentration (MIC) is 0.06 µg/mL (≈ 0.172 µM) in assay [6] and greater than 8 µg/mL in assay [7].
